# Experimental data taken from US20070203216A1, “METHOD OF TREATING INFLAMMATORY DISEASES” (priority 2006, published 2007).
# Entries after “also recorded” stand apart in the source; their conditions may differ.
# How the values were obtained:
# chronic mild stress rats = test: Chronic mild stress model in rats, serum marker analysis; details: CMS rats; for reversal of stress-induced alterations in serum markers: versus non-stressed controls;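 for all read-outs here: terminal serum drawn from the tail of rats 24 h after the final drug dose, profiled within a panel of roughly 60 blood markers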
# Method: At the end of the present study, terminal serum samples were collected for marker analysis to evaluate the effects of stress with and without drug on the levels of about 60 blood markers.
# Serum samples were withdrawn from the tail, without stunning, during the daytime (09:00-17:00) 24 hrs after the last drug injection. Blood was collected into BD vacutainers containing clot activator and gel for serum preparation, inverted 5 times and maintained on ice until centrifugation at 3000 rpm for 10 min at 4° C. Serum was decanted, placed on ice, and at the end of the day stored at −80° C.
# formalin pain model = details: U.S. Patent Application Publication No. 2005/0288371; cited from earlier work
# [1] = 1st study, 5 mg/kg, serum, median
# [2] = 2nd study, 10 mg/kg, serum, median
smiles,measurement,setting,value
"Oc1noc2c1CCNC2 [GBX, 4,5,6,7-tetrahydroisoxazolo [5,4-c] pyridine-3-ol]",Apo A1 (Apolipoprotein A1),chronic mild stress rats; [1],8.20 µg/mL
same,CRP (C Reactive Protein),chronic mild stress rats; [1],1140.00 µg/mL
same,Cystatin-C,chronic mild stress rats; [1],1165.00 ng/mL
same,FGF-9 (Fibroblast Growth Factor-9),chronic mild stress rats; [1],0.59 ng/mL
same,GCP-2 (Granulocyte Chemotactic Protein-2),chronic mild stress rats; [1],0.19 ng/mL
same,Growth Hormone,chronic mild stress rats; [1],7.67 ng/mL
same,IL-1alpha (Interleukin-1alpha),chronic mild stress rats; [1],11.30 pg/mL
same,IL-2 (Interleukin-2),chronic mild stress rats; [1],31.30 pg/mL
same,IL-4 (Interleukin-4),chronic mild stress rats; [1],29.60 pg/mL
same,IL-7 (Interleukin-7),chronic mild stress rats; [1],0.16 ng/mL
same,IL-10 (Interleukin-10),chronic mild stress rats; [1],249.00 pg/mL
same,IL-11 (Interleukin-11),chronic mild stress rats; [1],128.00 pg/mL
same,IL-18 (Interleukin-18),chronic mild stress rats; [1],0.07 ng/mL
same,IP-10 (Inducible Protein-10),chronic mild stress rats; [1],138.00 pg/mL
same,IgA (Immunoglobulin A),chronic mild stress rats; [1],5.91 µg/mL
same,Insulin,chronic mild stress rats; [1],8.88 ulU/mL
same,LIF (Leukemia Inhibitory Factor),chronic mild stress rats; [1],53.90 pg/mL
same,Leptin,chronic mild stress rats; [1],2.59 ng/mL
same,Lymphotactin,chronic mild stress rats; [1],53.80 pg/mL
same,M-CSF (Macrophage-Colony Stimulating Factor),chronic mild stress rats; [1],865.00 ng/mL
same,MCP-1 (Monocyte Chemoattractant Protein-1),chronic mild stress rats; [1],1185.00 pg/mL
same,MCP-3 (Monocyte Chemoattractant Protein-3),chronic mild stress rats; [1],655.00 pg/mL
same,MCP-5 (Monocyte Chemoattractant Protein-5),chronic mild stress rats; [1],0.77 pg/mL
same,MIP-1alpha (Macrophage Inflammatory Protein-1alpha),chronic mild stress rats; [1],173.00 ng/mL
same,MIP-1gamma (Macrophage Inflammatory Protein-1gamma),chronic mild stress rats; [1],7.95 ng/mL
same,MIP-2 (Macrophage Inflammatory Protein-2),chronic mild stress rats; [1],0.08 pg/mL
same,MPO (Myeloperoxidase),chronic mild stress rats; [1],20.80 ng/mL
same,NGAL (Lipocalin-2),chronic mild stress rats; [1],0.17 ng/mL
same,Osteopontin,chronic mild stress rats; [1],396.00 ng/mL
same,SAP (Serum Amyloid P),chronic mild stress rats; [1],133.00 µg/mL
same,SCF (Stem Cell Factor),chronic mild stress rats; [1],14.85 pg/mL
same,SGOT (Serum Glutamic-Oxaloacetic Transaminase),chronic mild stress rats; [1],0.21 µg/mL
same,TIMP-1 (Tissue Inhibitor of Metalloproteinase Type-1),chronic mild stress rats; [1],0.16 ng/mL
same,TPO (Thrombopoietin),chronic mild stress rats; [1],147.00 ng/mL
same,Tissue Factor,chronic mild stress rats; [1],0.10 ng/mL
same,VCAM-1 (Vascular Cell Adhesion Molecule-1),chronic mild stress rats; [1],361.00 ng/mL
same,VEGF (Vascular Endothelial Cell Growth Factor),chronic mild stress rats; [1],81.00 pg/mL
same,Apo A1 (Apolipoprotein A1),chronic mild stress rats; [2],6.20 µg/mL
same,Beta-2 Microglobulin,chronic mild stress rats; [2],38.00 µg/mL
same,CRP (C Reactive Protein),chronic mild stress rats; [2],1030.00 µg/mL
same,Clusterin,chronic mild stress rats; [2],108.00 µg/mL
same,Cystatin-C,chronic mild stress rats; [2],696.00 ng/mL
same,Eotaxin,chronic mild stress rats; [2],1072.00 pg/mL
same,FGF-9 (Fibroblast Growth Factor-9),chronic mild stress rats; [2],1.70 ng/mL
same,Factor VII,chronic mild stress rats; [2],0.30 ng/mL
same,GCP-2 (Granulocyte Chemotactic Protein-2),chronic mild stress rats; [2],0.29 ng/mL
same,GST-Mu,chronic mild stress rats; [2],1190.00 ng/mL
same,Growth Hormone,chronic mild stress rats; [2],3.10 ng/mL
same,IL-1beta (Interleukin-1beta),chronic mild stress rats; [2],0.56 ng/mL
same,IL-2 (Interleukin-2),chronic mild stress rats; [2],22.00 pg/mL
same,IL-5 (Interleukin-5),chronic mild stress rats; [2],0.24 ng/mL
same,IL-7 (Interleukin-7),chronic mild stress rats; [2],0.06 ng/mL
same,IL-10 (Interleukin-10),chronic mild stress rats; [2],362.00 pg/mL
same,IL-18 (Interleukin-18),chronic mild stress rats; [2],0.43 ng/mL
same,IP-10 (Inducible Protein-10),chronic mild stress rats; [2],41.00 pg/mL
same,IgA (Immunoglobulin A),chronic mild stress rats; [2],4.30 µg/mL
same,Insulin,chronic mild stress rats; [2],14.50 ulU/mL
same,LIF (Leukemia Inhibitory Factor),chronic mild stress rats; [2],67.00 pg/mL
same,Leptin,chronic mild stress rats; [2],1.35 ng/mL
same,Lymphotactin,chronic mild stress rats; [2],63.00 pg/mL
same,M-CSF (Macrophage-Colony Stimulating Factor),chronic mild stress rats; [2],1400.00 ng/mL
same,MCP-1 (Monocyte Chemoattractant Protein-1),chronic mild stress rats; [2],1020.00 pg/mL
same,MCP-3 (Monocyte Chemoattractant Protein-3),chronic mild stress rats; [2],659.00 pg/mL
same,MCP-5 (Monocyte Chemoattractant Protein-5),chronic mild stress rats; [2],0.72 pg/mL
same,MDC (Macrophage-Derived Chemokine),chronic mild stress rats; [2],0.12 pg/mL
same,MIP-1alpha (Macrophage Inflammatory Protein-1alpha),chronic mild stress rats; [2],127.00 ng/mL
same,MIP-1beta (Macrophage Inflammatory Protein-1beta),chronic mild stress rats; [2],0.01 pg/mL
same,MIP-1gamma (Macrophage Inflammatory Protein-1gamma),chronic mild stress rats; [2],19.00 ng/mL
same,MIP-2 (Macrophage Inflammatory Protein-2),chronic mild stress rats; [2],0.22 pg/mL
same,MIP-3beta (Macrophage Inflammatory Protein-3beta),chronic mild stress rats; [2],29.70 ng/mL
same,MPO (Myeloperoxidase),chronic mild stress rats; [2],533.00 ng/mL
same,Myoglobin,chronic mild stress rats; [2],520.00 ng/mL
same,NGAL (Lipocalin-2),chronic mild stress rats; [2],0.15 ng/mL
same,OSM (Oncostatin M),chronic mild stress rats; [2],19.10 ng/mL
same,Osteopontin,chronic mild stress rats; [2],255.00 ng/mL
same,"RANTES (Regulation Upon Activation, Normal T-Cell Expressed and Secreted)",chronic mild stress rats; [2],10.60 pg/mL
same,SAP (Serum Amyloid P),chronic mild stress rats; [2],403.00 µg/mL
same,SCF (Stem Cell Factor),chronic mild stress rats; [2],11.30 pg/mL
same,SGOT (Serum Glutamic-Oxaloacetic Transaminase),chronic mild stress rats; [2],8.53 µg/mL
same,TIMP-1 (Tissue Inhibitor of Metalloproteinase Type-1),chronic mild stress rats; [2],0.24 ng/mL
same,TNF-alpha (Tumor Necrosis Factor-alpha),chronic mild stress rats; [2],4.45 ng/mL
same,TPO (Thrombopoietin),chronic mild stress rats; [2],119.00 ng/mL
same,Tissue Factor,chronic mild stress rats; [2],0.06 ng/mL
same,VCAM-1 (Vascular Cell Adhesion Molecule-1),chronic mild stress rats; [2],353.00 ng/mL
same,VEGF (Vascular Endothelial Cell Growth Factor),chronic mild stress rats; [2],78.00 pg/mL
same,reversal of stress-induced alterations in serum markers,chronic mild stress rats; listed as gaboxadol,significantly reversed the stress-induced alterations in serum markers; also recorded: dose dependently is able to reverse or partially reverse changes
same,pain response in phase 2 of the formalin pain model,formalin pain model,inhibit the pain response in phase 2
"CN(C)CCC[C@@]1(c2ccc(F)cc2)OCc2cc(C#N)ccc21 [ESC, Escitalopram, reference compound]",Apo A1 (Apolipoprotein A1),chronic mild stress rats; [1],8.40 µg/mL
same,CRP (C Reactive Protein),chronic mild stress rats; [1],1060.00 µg/mL
same,Eotaxin,chronic mild stress rats; [1],1300.00 pg/mL
same,FGF-9 (Fibroblast Growth Factor-9),chronic mild stress rats; [1],0.90 ng/mL
same,GCP-2 (Granulocyte Chemotactic Protein-2),chronic mild stress rats; [1],0.21 ng/mL
same,Growth Hormone,chronic mild stress rats; [1],1.38 ng/mL
same,IL-1alpha (Interleukin-1alpha),chronic mild stress rats; [1],15.40 pg/mL
same,IL-2 (Interleukin-2),chronic mild stress rats; [1],38.80 pg/mL
same,IL-4 (Interleukin-4),chronic mild stress rats; [1],51.70 pg/mL
same,IL-7 (Interleukin-7),chronic mild stress rats; [1],0.22 ng/mL
same,IL-10 (Interleukin-10),chronic mild stress rats; [1],317.00 pg/mL
same,IL-11 (Interleukin-11),chronic mild stress rats; [1],166.00 pg/mL
same,IP-10 (Inducible Protein-10),chronic mild stress rats; [1],194.00 pg/mL
same,IgA (Immunoglobulin A),chronic mild stress rats; [1],6.54 µg/mL
same,Insulin,chronic mild stress rats; [1],11.30 ulU/mL
same,LIF (Leukemia Inhibitory Factor),chronic mild stress rats; [1],67.20 pg/mL
same,Leptin,chronic mild stress rats; [1],2.62 ng/mL
same,Lymphotactin,chronic mild stress rats; [1],68.00 pg/mL
same,M-CSF (Macrophage-Colony Stimulating Factor),chronic mild stress rats; [1],941.00 ng/mL
same,MCP-1 (Monocyte Chemoattractant Protein-1),chronic mild stress rats; [1],1500.00 pg/mL
same,MCP-3 (Monocyte Chemoattractant Protein-3),chronic mild stress rats; [1],885.00 pg/mL
same,MCP-5 (Monocyte Chemoattractant Protein-5),chronic mild stress rats; [1],0.87 pg/mL
same,MIP-1alpha (Macrophage Inflammatory Protein-1alpha),chronic mild stress rats; [1],244.00 ng/mL
same,MIP-1gamma (Macrophage Inflammatory Protein-1gamma),chronic mild stress rats; [1],11.50 ng/mL
same,MIP-2 (Macrophage Inflammatory Protein-2),chronic mild stress rats; [1],0.09 pg/mL
same,MPO (Myeloperoxidase),chronic mild stress rats; [1],54.60 ng/mL
same,NGAL (Lipocalin-2),chronic mild stress rats; [1],0.22 ng/mL
same,Osteopontin,chronic mild stress rats; [1],310.00 ng/mL
same,SAP (Serum Amyloid P),chronic mild stress rats; [1],178.00 µg/mL
same,SCF (Stem Cell Factor),chronic mild stress rats; [1],16.95 pg/mL
same,SGOT (Serum Glutamic-Oxaloacetic Transaminase),chronic mild stress rats; [1],0.31 µg/mL
same,TIMP-1 (Tissue Inhibitor of Metalloproteinase Type-1),chronic mild stress rats; [1],0.22 ng/mL
same,TPO (Thrombopoietin),chronic mild stress rats; [1],142.00 ng/mL
same,Tissue Factor,chronic mild stress rats; [1],0.15 ng/mL
same,VCAM-1 (Vascular Cell Adhesion Molecule-1),chronic mild stress rats; [1],409.00 ng/mL
same,VEGF (Vascular Endothelial Cell Growth Factor),chronic mild stress rats; [1],106.00 pg/mL
same,reversal of stress-induced alterations in serum markers,chronic mild stress rats,inactive at most of these changes
